The record followed here is patent publication US20030134865A1, “Modulation of histone deacetylase” (priority 2003, published 2003).

A value given as a limit tells only on which side of the number the result lay.

Assay [1] has as its system SLPI production, A549 cells. Kind of assay: SLPI production by A549 cells (ELISA). It counts as cell-based. As for the experimental part:
A549 cells were grown to 50% confluence in Dulbecco's modified medium (DMEM) containing 10% fetal calf serum (FCS) before incubation for 48-72 hr in serura-free media.
Determination of GM-CSF expression was measured by sandwich ELISA (Pharmingen, Lugano, Switzerland) according to the manufacturer's instructions. For immunoassay of SLPI and acetylated histone, polystyrene microtitre plates were coated overnight at 4° C. with sample diluted with hydroxy carbonate (pH 9.6). Plates were blocked for 2 hr with 5 % ovalbumin in PBS. Antibodies against SLPI (R&D Systems Europe, Abingdon, UK), K5, K8, K12 and K16 acetylated histone 4 (Serotec, Oxford, UK) were diluted 1:300-1:1000 and added to each plate. After 1 hr at room temperature plates were washed sequentially with 0.1% Tween20-PBS and incubated with HRP conjugated goat anti-rabbit antibody (DAKO, Cambridge, UK) for 1 hr. Detection was performed with ABTS following Pharmingen instructions. Recombinant human SLPI (R&D Systems Europe) was used as a standard. As a standard for acetylated histone, crude extracted histone from A549 cells incubated with TSA (100 ng/ml) for 6 hr was used, and the value was calculated in units, where 1 unit is equivalent to the absorbance of 50 ng of TSA-treated hyperacetylated histone after subtraction of BSA-induced histone acetylation.
(In an ELISA, binding on a coated surface is turned into a signal by an enzyme label.)

The test system of assay [2] is histone acetylation, A549 cells. Kind of assay: Histone acetylation, [3H]-acetate incorporation in whole A549 cells. Type of assay: cell-based. The source says:
Histones were isolated and separated by SDS-PAGE and [^3H]-acetate incorporated histones were counted and normalised to protein level. […] Data represents mean±SEM of 3 independent experiments. **p<0.01.

In assay [3] the test system is histone H4 lysines K5, K8, K12, K16. Kind of assay: Immunocytochemical staining for acetylated histone H4 lysine residues. Type of assay: cell-based. The conditions noted are these: 6 hr. As to the method:
Immunocytochemical staining for specific histone H4 acetylated lysine residues. […] Results are representative of 4 independent experiments.
Cells were washed with Hanks solution, and air-dried for 30 min at RT. Cells were then fixed in ice-cold acetone-methanol (50/50, w/w) (−20° C.) for 10 min. Slides were air dried and incubated with blocking buffer (20% normal swine serum in PBS, 0.1% saponin)(Dako) for 20 mmn followed by 1 hr incubation with primary antibody solution (PBS, 0.1% saponin, 1% BSA). Antibodies against pan-acetylated H4, H4-K5, H4-K8, H4-K12 and H4-K16 (Serotec) were used at 1:100 to 1:300 dilution. Slides were washed twice and incubated with biotinylated swine anti-rabbit IgG (Dako)(1:200) for 45 min. Slides were washed again before incubation with fluorescein isothiocyante-conjugated streptavidine (1:100) for 45 min. The slides were washed twice more before counterstaining with 20% haematoxyline, and mounting. Stained cells were observed by confocal microscopy. Confocal scanning laser microscopy images were collected with a Leica confocal microscope, equipped with a 488/514 nm dual band argon ion laser. An oil-immersion objective was used and images were collected using TCSNT software.

Assay [4] relates to p65-associated histone acetylation. Kind of assay: p65-immunoprecipitated histone acetylation (IP-HAT assay). Type of assay: cell-based.
Method: Total cellular proteins were isolated and p65 associated proteins immunoprecipitated under stringent conditions (see methods). The associated histone acetylation activity was measured following incubation of the p65-IP extract with 10 μg free core histones and 0.25 mCi of ^3H-acetyl CoA for 45 minutes.
Histone acetylation experiments were performed as in (A) in the presence of TSA (100 ng/ml).
Extracts were prepared using 100 μl of stringent immunoprecipitation (IP) buffer (50 mM Tris-HCl, pH 8.0, 150 mM NaCl, 1.0% triton X-100, 0.5% NP-40, 0.1% SDS, 0.5% deoxycholate, complete protease inhibitor cocktail (Boehringer-Mannheim)) or mild IP buffer (10 mM Tris-HCl, pH 8.0, 150 mM NaCl, 0.5% NP-40, complete protease inhibitor cocktail (Boehringer-Mannheim)). […] After microcentrifugation, 20 μl of A/G agarose conjugated with 5 μg of antibody were used to precipitate CBP, PCAF, GR or p65 overnight at 4° C. with rotation.
Immune complexes with resin were resuspended in 150 μl of HAT buffer (50 mM Tris-HCl, pH 8.0, 10% glycerol, 1 mM dithiothreitol, 0.1 mM EDTA, complete protease inhibitor cocktail). Typically, 20 μl of free core histone solution extracted from A549 cells (final amount 10 μg) and 30 μl of immunoprecipitate were incubated. Reactions were initiated by the addition of 0.25 mCi of [^3H] acetyl-CoA (5 Ci/mmol)(Amersham) and performed for 45 min at 30° C.
The test system of assay [5] is CBP-associated HAT activity. The experiment in a line: CBP-immunoprecipitated histone acetylation (IP-HAT assay). Type of assay: cell-based. As for the experimental part:
[…]. Cells were treated as in (A) and CBP immunoprecipitated under stringent conditions (see methods). Histone acetylation was measured as in (A) and results presented as mean±sem of at least 3 independent experiments, *p<0.05.
[…]. Cells were treated as in (A) and CBP immunoprecipitated under mild conditions (see methods). Histone acetylation was measured as in (A). […] Results presented as mean±sem of at least 3 independent experiments, *p<0.05.
Extracts were prepared using 100 μl of stringent immunoprecipitation (IP) buffer (50 mM Tris-HCl, pH 8.0, 150 mM NaCl, 1.0% triton X-100, 0.5% NP-40, 0.1% SDS, 0.5% deoxycholate, complete protease inhibitor cocktail (Boehringer-Mannheim)) or mild IP buffer (10 mM Tris-HCl, pH 8.0, 150 mM NaCl, 0.5% NP-40, complete protease inhibitor cocktail (Boehringer-Mannheim)). The lysis mixture was incubated on ice for 15 min and microfuged for 10 min at 4° C. Extracts were precleared with 20 μl of A/G agarose (a 50:50 mix; Santa Cruz, Santa Cruz, Calif.) and 2 μg of normal IgG. After microcentrifugation, 20 μl of A/G agarose conjugated with 5 μg of antibody were used to precipitate CBP, PCAF, GR or p65 overnight at 4° C. with rotation. […]
IP-HAT assays were performed using a modified method of Ogryzko (Ogryzko, V. V et al (1996) Cell 87:953-959). […] The dried filters were counted in a liquid scintillation counter.

In another assay the test system is CBP, PCAF. Kind of assay: CBP and PCAF expression in A549 cells (Western blot). It counts as cell-based. Conditions: 10^−8 and 10^−6M, 6 hrs. For orientation: In western blotting, separated proteins are transferred to a membrane and probed.
Assay [6] deals with histone deacetylase (HDAC) activity, A549 cells. Kind of assay: Histone deacetylation activity in total cellular extracts of treated A549 cells. Conditions: 4 hrs; theophylline pre-treatment 10^−5 M, 10 min.
Method: (B) Effect of Trichostatin A (TSA) on histone deacetylase activity and histone H4 acetylation. Cells were treated with increasing concentrations of TSA for 6 hrs before total cellular proteins were isolated and analysed for deacetylase activity and also histone acetylation by Western blotting using an anti-pan acetylated histone H4 antibody.
Effect of theophylline on histone deacetylase (HDAC) activity in A549 cells. (a) Cells were stimulated with LPS (3 ng/ml) for 24 hours in the presence or absence of theophylline (10^−5 M) or Dex (10^−6 M). Total cellular proteins were extracted and histone deacetylase activity measured. (b) Direct effect of theophylline on HDAC activity. […] Results are expressed as mean±SEM (n=3-5, *p<0.05, **p<0.01).
For another assay, the system named is HDAC activity. The experiment in a line: Direct effect on HDAC activity of nuclear proteins from untreated A549 cells. It counts as biochemical. Conditions: nuclear extracts; IBMX 500 μM, rolipram 10 μM, CGS-15943 10 μM. As to the method:
FIG. 13. […] (a) Direct effect of the PDE4 inhibitor rolipram (10 μM) and the adenosine receptor antagonist CGS-15943 (10 μM) on HDAC activity. […] (b) Direct effect of the MEK inhibitor PD089159 (1 μM) and the p38 MAPK inhibitor SB203580 on theophylline induced HDAC activity.

For a further assay, the system named is HAT activity. The experiment in a line: Direct effect on HAT activity. Type of assay: biochemical. Conditions: IBMX 500 μM, rolipram 10 μM, CGS-15943 10 μM.
In assay [7] the test system is HDAC activity, BAL macrophages. Kind of assay: HDAC activity in BAL macrophages. Type of assay: cell-based, human. The conditions noted are these: 24 hours, rolipram 10 μM.
The subject of assay [8] is HAT activity, BAL macrophages. Kind of assay: HAT activity in BAL macrophages. Conditions: rolipram 10 μM.
Method: HAT activity (a) and HDAC activity (b) were measured as described in the methods. Results are expressed as mean±SEM (n=5).
Fibreoptic bronchoscopy and isolation of BAL macrophages: Subjects attended our bronchoscopy suite at 8.30 am after having fasted from midnight and were pretreated with atropine (0.6 mg iv) and midazolam (5-10 mg iv). Oxygen (31/min) was administered via nasal prongs throughout the procedure and oxygen saturation was monitored with a digital oximeter. Using local anaesthesia with lidocaine (4%) to the upper airways and larynx, a fibreoptic bronchoscope (Olympus BF10) was passed through the nasal passages into the trachea. Bronchoalveolar lavage (BAL) was performed from the right middle lobe using warmed 0.9% NaCl with 4 successive aliquots of 60 mls of 0.9% NaCl. […] Cytospins were prepared and stained with May-Grunwald stain for differential cell counts. Cell viability was assessed using trypan blue exclusion.
After incubation for 10 min at 37° C. cells were stimulated for 6 hr. […] Gels were stained with Coommasie brilliant blue and the core histones (H2A, H2B, H3 and H4) excised. The radioactivity in extracted core histones was determined by liquid scintillation counting and normalised to protein level.

From the text for CBP, PCAF: Proteins were extracted and size fractionated by SDS-PAGE and CBP and PCAF detected by Western blotting. Results are representative of 3 independent experiments. […] Immunoreactive bands were detected by ECL.

Regarding `C[C@@H]1C[C@H]2[C@@H]3CCC4=CC(=O)C=C[C@]4(C)[C@@]3(F)[C@@H](O)C[C@]2(C)[C@@]1(O)C(=O)CO` [dexamethasone], the EC50 (in general, the concentration giving half of the maximal effect) in assay [1] (Homo sapiens, A549, read-out: EC50, induction of SLPI) stood at 9 nM. For the same compound, the “concentration of maximum SLPI induction” value in [1] (dexamethasone alone) came out at 1 µM. Moreover, in assay [2] (between 4-8 hr), the “concentration giving maximum induction of histone acetylation” value is listed as ≥ 10^−8 M. In assay [2] (dexamethasone 10^−10 M alone, no effect), this compound had a basal histone acetylation of 23.7±4.1 dpm/μg protein. Also, the “IL-1β plus dexamethasone-stimulated histone acetylation” value in assay [2] (dexamethasone 10^−10 M, no TSA) is 37±5 dpm/μg protein. In assay [2] (without TSA), this compound showed a dexamethasone-induced histone acetylation of 71±9 dpm/μg protein. For the same compound, in assay [3], the “acetylated histone H4 K5” value is given as 53±9 % positive nuclei and the “acetylated histone H4 K16” value amounted to 36±16 % positive nuclei. Moreover, in assay [4], the “IC50, p65-associated IL-1β-induced histone acetylation” value was determined as 0.4 nM. Moreover, in assay [4] (TSA 100 ng/ml), the “IC50, p65-associated histone acetylation in the presence of TSA” value came out at 90 nM. In addition, in assay [5] (CBP immunoprecipitated under stringent IP conditions, read-out: IC50, IL-1β-stimulated CBP-dependent histone acetylation), the IC50 (usually the midpoint of a concentration-inhibition curve) was found to be 8 nM. Besides, the “IC50, IL-1β-induced CBP-associated histone acetylation” value in assay [5] (CBP isolated under mild IP conditions) was 0.04 nM. For the same compound, the “CBP or PCAF expression” value in the assay on CBP, PCAF is listed as “no effect”. Further, the “total cell HDAC activity after IL-1β plus H2O2” value in [6] is listed as “no effect”.
In the case of `COc1ccc(C2CNC(=O)C2)cc1OC1CCCC1` (stereo not drawn) [rolipram], in the assay on HDAC activity, the “direct effect on HDAC activity” value is “no direct effect”. In the assay with HAT activity, the “direct effect on HAT activity” value is reported as “no direct effect”. For the same compound, the HDAC activity result in assay [7] is listed as “no effect”. Further, the HAT activity entry in assay [8] is “no effect”.
